In data set [1] the target is T1, human progesterone receptor A (Homo sapiens, UniProt P06401).
T1 construct: expressed in transfected cells; host or cells: SK-N-MC human neuroblastoma cells, stably transfected with pRChPR-A-neo and pMMTV-LUC
T1 sequence (P06401 1-769 isoform P06401-2): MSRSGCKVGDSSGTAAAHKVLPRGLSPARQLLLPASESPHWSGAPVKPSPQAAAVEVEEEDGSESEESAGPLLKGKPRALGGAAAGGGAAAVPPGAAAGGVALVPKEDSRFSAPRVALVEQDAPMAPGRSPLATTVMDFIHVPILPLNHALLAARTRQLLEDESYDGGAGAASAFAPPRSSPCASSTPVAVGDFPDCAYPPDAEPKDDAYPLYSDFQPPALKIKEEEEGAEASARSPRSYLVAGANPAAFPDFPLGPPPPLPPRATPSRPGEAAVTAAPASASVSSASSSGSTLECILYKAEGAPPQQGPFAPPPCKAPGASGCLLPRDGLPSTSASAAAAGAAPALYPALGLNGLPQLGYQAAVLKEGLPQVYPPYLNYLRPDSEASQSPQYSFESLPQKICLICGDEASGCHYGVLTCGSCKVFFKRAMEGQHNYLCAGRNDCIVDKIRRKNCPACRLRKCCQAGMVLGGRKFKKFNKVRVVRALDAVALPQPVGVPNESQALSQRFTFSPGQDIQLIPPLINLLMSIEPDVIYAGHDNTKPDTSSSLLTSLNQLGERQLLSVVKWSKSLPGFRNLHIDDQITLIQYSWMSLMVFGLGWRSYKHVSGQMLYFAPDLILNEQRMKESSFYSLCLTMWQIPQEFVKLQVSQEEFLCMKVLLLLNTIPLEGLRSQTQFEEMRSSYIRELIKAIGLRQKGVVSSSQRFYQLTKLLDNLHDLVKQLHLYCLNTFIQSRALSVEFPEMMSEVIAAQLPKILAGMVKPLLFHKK
Briefly: Progesterone receptor-antagonistic action in stably transfected SK-N-MC cells with MMTV-LUC reporter (PR-A). It is filed as cell-based. Particulars: antagonistic potency against 0.1 nmol/l promegestone, 24 hours, luciferase. Here is the method: (§1) Determination of Progesterone Receptor-Antagonistic Action in Stable Transfectants of Human Neuroblastoma Cells (SK-N-MC Cells) with the Human Progesterone A or Progesterone B Receptor and an MN-LUC Reporter Construct
(§2) SK-N-MC cells (human neuroblastoma cells) which have been stably transfected with plasmids expressing the human progesterone receptor B (pRChPR-B-neo) or the human progesterone receptor A (pRChPR-A-neo) and a reporter construct (pMMTV-LUC) were incubated for 24 hours either in the absence (negative control) or in the presence of ascending amounts of the particular test compound (0.01 nmol/l, 0.1 nmol/l, 1 nmol/l, 10 nmol/l, 100 nmol/l and […]), in order to determine the agonistic efficacy. As a positive control of the reporter gene induction, the cells were treated with the synthetic gestagen promegestone (0.01 nmol/l, 0.1 nmol/l, 1 nmol/l, 10 nmol/l, 100 nmol/l and […]). To determine the antagonistic activity, the cells were treated with 0.1 nmol/l promegestone and additionally with ascending amounts of the particular test compound (0.01 nmol/l, 0.1 nmol/l, 1 nmol/l, 10 nmol/l, 100 nmol/l and […]). The activity of the reporter gene LUC (LUC=luciferase) was determined in the cell lysates and measured as RLU (relative light units). All measurements are reported as % efficacy and as EC50 and IC50 concentrations.

Data set [2] addresses T2, human progesterone receptor B (Homo sapiens, UniProt P06401).
T2 construct: expressed in transfected cells; host or cells: SK-N-MC human neuroblastoma cells, stably transfected with pRChPR-B-neo and pMMTV-LUC
T2 sequence (P06401 1-933): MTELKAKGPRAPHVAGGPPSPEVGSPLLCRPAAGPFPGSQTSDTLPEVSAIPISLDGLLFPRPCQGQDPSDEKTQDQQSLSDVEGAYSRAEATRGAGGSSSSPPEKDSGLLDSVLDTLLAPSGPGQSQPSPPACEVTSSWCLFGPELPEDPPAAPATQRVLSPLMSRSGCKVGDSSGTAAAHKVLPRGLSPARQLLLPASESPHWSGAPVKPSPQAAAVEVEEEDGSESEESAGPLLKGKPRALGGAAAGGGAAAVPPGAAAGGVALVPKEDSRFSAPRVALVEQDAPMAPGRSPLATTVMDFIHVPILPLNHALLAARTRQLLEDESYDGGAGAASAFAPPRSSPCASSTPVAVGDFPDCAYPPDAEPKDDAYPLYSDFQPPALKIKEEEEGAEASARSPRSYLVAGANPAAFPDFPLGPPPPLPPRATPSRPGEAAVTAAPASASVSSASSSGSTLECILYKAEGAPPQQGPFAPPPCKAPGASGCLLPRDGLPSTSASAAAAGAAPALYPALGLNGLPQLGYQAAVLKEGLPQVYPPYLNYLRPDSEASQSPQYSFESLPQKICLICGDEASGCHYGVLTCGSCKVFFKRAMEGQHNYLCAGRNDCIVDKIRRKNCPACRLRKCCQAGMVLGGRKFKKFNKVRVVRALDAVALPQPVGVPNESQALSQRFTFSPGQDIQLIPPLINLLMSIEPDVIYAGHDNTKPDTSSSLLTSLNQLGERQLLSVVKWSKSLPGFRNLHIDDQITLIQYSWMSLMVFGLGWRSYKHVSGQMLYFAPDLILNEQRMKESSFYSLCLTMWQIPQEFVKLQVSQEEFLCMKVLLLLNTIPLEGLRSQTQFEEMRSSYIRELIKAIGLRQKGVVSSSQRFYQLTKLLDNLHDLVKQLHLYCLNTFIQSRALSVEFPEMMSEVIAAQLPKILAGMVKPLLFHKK
Nature of the data set: Progesterone receptor-antagonistic action in stably transfected SK-N-MC cells with MMTV-LUC reporter (PR-B). Particulars: antagonistic potency against 0.1 nmol/l promegestone, 24 hours, luciferase. It is filed as cell-based. On the procedure:
as §1, §2

Data set [3] can be described thus: Metabolic stability in rat liver microsomes. It is filed as in vitro ADME. The following applies: well-stirred model. Here is the method: (§3) Determination of Metabolic Stability in Human and Rat Liver Microsomes
(§4) The incubations were conducted with 2.4 ml of HLM solution (protein content 0.5 mg/ml), 30 μl of the test compound (final concentration 1 μM) and 0.6 ml of the cofactor mixture (═NADPH-generating system composed of 3 IU glucose-6-phosphate dehydrogenase, 14.6 mg glucose-6-phosphate, 1.2 mg NADP) at 37° C. in 100 mM phosphate buffer at pH 7.4. Samples were taken at 6 time points (2-60 min) and precipitated with an equal volume of methanol, and the recovery of the test substances used in the supernatant was determined by LC-MS/MS analysis. The half-life of substance degradation determined therefrom was used to calculate what is called the intrinsic clearance of the substance in the liver microsome preparation. […] In addition, under the assumptions that (i) absorption of the test substance is 100%, and (ii) the first pass is completely reflected by liver microsome metabolism, a maximum oral bioavailability (Fmax) was calculated.

A short description of data set [4]: Metabolic stability in human liver microsomes. The following applies: 1 μM, well-stirred model. It is filed as in vitro ADME. On the procedure: as §3
Isolated human liver microsomes (HLM) were used to assess the metabolic stability of compounds of general formula I.
as §4
In general terms: Microsomes from liver hold many membrane-bound enzymes, among them those of drug oxidation.

As usually defined, the IC50 is the concentration that inhibits the measured activity by half.

Consider `Cc1noc(C)c1NC(=O)NC/C=C/c1ccc([C@H]2C[C@@]3(C)[C@@H](CC[C@@]3(O)C(F)(F)C(F)(F)F)[C@@H]3CCC4=CC(=O)CCC4=C32)cc1` [Example 48, 1-(3,5-dimethylisoxazol-4-yl)-3-{(E)-3-[4-((8S,11R,13S,14S,17S)-17-hydroxy-13-methyl-3-oxo-17-pentafluoroethyl-2,3,6,7,8,11,12,13,14,15,16,17-dodecahydro-1H-cyclopenta[a]phenanthren-11-yl)phenyl]allyl}urea], for which the half-maximal inhibitory concentration (IC50) in data set [1] worked out at 0.09 nM; in data set [2] it was 0.03 nM.
Taken in the same sequence, the figures for `CCOC(=O)CCNC(=O)NC/C=C/c1ccc([C@H]2C[C@@]3(C)C(CC[C@@]3(O)C(F)(F)C(F)(F)F)C3CCC4=CC(=O)CCC4=C32)cc1` (stereo partly drawn) [Example 49, (3-{(E)-3-[4-((8S,11R,13S,14S,17S)-17-hydroxy-13-methyl-3-oxo-17-pentafluoroethyl-2,3,6,7,8,11,12,13,14,15,16,17-dodecahydro-1H-cyclopenta[a]phenanthren-11-yl)phenyl]allyl}ureido)propionic acid ethyl ester] were 0.1 nM and 0.3 nM.
In the case of `C[C@]12C[C@H](c3ccc(/C=C/CNC(=O)NCCC(=O)O)cc3)C3=C4CCC(=O)C=C4CCC3C1CC[C@@]2(O)C(F)(F)C(F)(F)F` (stereo partly drawn) [Example 50, (3-{(E)-3-[4-((8S,11R,13S,14S,17S)-17-hydroxy-13-methyl-3-oxo-17-pentafluoroethyl-2,3,6,7,8,11,12,13,14,15,16,17-dodecahydro-1H-cyclopenta[a]phenanthren-11-yl)phenyl]allyl}ureido)propionic acid], the IC50 in data set [1] was 8 nM; in data set [2], 3 nM.
As for `CCOC(=O)CNC(=O)NC/C=C/c1ccc([C@H]2C[C@@]3(C)C(CC[C@@]3(O)C(F)(F)C(F)(F)F)C3CCC4=CC(=O)CCC4=C32)cc1` (stereo partly drawn) [Example 51, 3-(3-{(E)-3-[4-((8S,11R,13S,14S,17S)-17-hydroxy-13-methyl-3-oxo-17-pentafluoroethyl-2,3,6,7,8,11,12,13,14,15,16,17-dodecahydro-1H-cyclopenta[a]phenanthren-11-yl)phenyl]allyl}ureido)acetic acid ethyl ester], the IC50 in data set [1] and in data set [2] was 0.1 nM each time.
As for `C[C@]12C[C@H](c3ccc(/C=C/CNC(=O)NCC(=O)O)cc3)C3=C4CCC(=O)C=C4CCC3C1CC[C@@]2(O)C(F)(F)C(F)(F)F` (stereo partly drawn) [Example 52, 3-(3-{(E)-3-[4-((8S,11R,13S,14S,17S)-17-hydroxy-13-methyl-3-oxo-17-pentafluoroethyl-2,3,6,7,8,11,12,13,14,15,16,17-dodecahydro-1H-cyclopenta[a]phenanthren-11-yl)phenyl]allyl}ureido)acetic acid], the IC50 in data set [1] came out at 3 nM; in data set [2], 2 nM.
Regarding `C[C@]12C[C@H](c3ccc(/C=C/CNC(=O)Nc4ccc(Cl)cc4)cc3)C3=C4CCC(=O)C=C4CC[C@H]3[C@@H]1CC[C@@]2(O)C(F)(F)C(F)(F)F` [Example 53, 1-(4-chlorophenyl)-3-{(E)-3-[4-((8S,11R,13S,14S,17S)-17-hydroxy-13-methyl-3-oxo-17-pentafluoroethyl-2,3,6,7,8,11,12,13,14,15,16,17-dodecahydro-1H-cyclopenta[a]phenanthren-11-yl)phenyl]allyl}urea], the values for the IC50 in data set [1] and in data set [2] were 0.1 nM and 0.2 nM, respectively.
Regarding `CCOC(=O)c1ccc(NC(=O)NC/C=C/c2ccc([C@H]3C[C@@]4(C)[C@@H](CC[C@@]4(O)C(F)(F)C(F)(F)F)[C@@H]4CCC5=CC(=O)CCC5=C43)cc2)cc1` [Example 55, 4-(3-{(E)-3-[4-((8S,11R,13S,14S,17S)-17-hydroxy-13-methyl-3-oxo-17-pentafluoroethyl-2,3,6,7,8,11,12,13,14,15,16,17-dodecahydro-1H-cyclopenta[a]phenanthren-11-yl)phenyl]allyl}ureido)benzoic acid ethyl ester], the IC50 in data set [1] amounted to 0.1 nM; in data set [2], 0.09 nM.
Consider `C[C@]12C[C@H](c3ccc(/C=C/CNC(=O)Nc4ccc(C(=O)O)cc4)cc3)C3=C4CCC(=O)C=C4CC[C@H]3[C@@H]1CC[C@@]2(O)C(F)(F)C(F)(F)F` [Example 56, 4-(3-{(E)-3-[4-((8S,11R,13S,14S,17S)-17-hydroxy-13-methyl-3-oxo-17-pentafluoroethyl-2,3,6,7,8,11,12,13,14,15,16,17-dodecahydro-1H-cyclopenta[a]phenanthren-11-yl)phenyl]allyl}ureido)benzoic acid], for which the IC50 in data set [1] is 0.9 nM; in data set [2] it was 1.9 nM.
Consider `C=CCNC(=O)NC/C=C/c1ccc([C@H]2C[C@@]3(C)[C@@H](CC[C@@]3(O)C(F)(F)C(F)(F)F)[C@@H]3CCC4=CC(=O)CCC4=C32)cc1` [Example 57, 1-allyl-3-{(E)-3-[4-((8S,11R,13S,14S,17S)-17-hydroxy-13-methyl-3-oxo-17-pentafluoroethyl-2,3,6,7,8,11,12,13,14,15,16,17-dodecahydro-1H-cyclopenta[a]phenanthren-11-yl)phenyl]allyl}urea], for which the half-inhibitory concentration (IC50) is 0.09 nM in data set [1] and 0.1 nM in data set [2].
Turning to `C[C@]12C[C@H](c3ccc(CO)cc3)C3=C4CCC(=O)C=C4CC[C@H]3[C@@H]1CC[C@@]2(O)C(F)(F)C(F)(F)F` [Ref. 1, (8S,11R,13S,14S,17S)-17-hydroxy-11-[4-(hydroxymethyl)phenyl]-13-methyl-17-pentafluoroethyl-1,2,6,7,8,11,12,13,14,15,16,17-dodecahydrocyclopenta[a]phenanthren-3-one, reference compound], the values for the IC50 in data set [1] and in data set [2] were 0.7 nM and 0.8 nM, respectively. Besides, the “Predicted clearance [l/h/kg] Rat” value in data set [3] was 0.8 L/h/kg. Besides, in data set [4], the “Predicted clearance [l/h/kg] Human” value was 0.7 L/h/kg.
